Experiments:
[1] = test system: SARS CoV-2 (USA_WA1/2020); type: cell-based
cell viability = assay: ATP content assay for cell viability and compound cytotoxicity
[2] = test system: Ebola virus (EBOV/May-eGFP); assay: microbe, parasite or virus in culture; type: cell-based; conditions: Zaire ebolavirus, read-out: IC50, EBOV infection inhibition

Row | SMILES | selectivity index (SI) [1] | IC50 ([1]; read-out: IC50, SARS-CoV-2 CPE assay) | inhibition of cell viability (slight cytotoxicity) (cell viability; maximal effect) | IC50 (cell viability; read-out: cytotoxicity IC50 (cell viability), counter assay to CPE) | IC50 [2]
1 | Cc1cccc(C=NNc2cc(N3CCOCC3)nc(N3CCOCC3)n2)c1 [MLS000699212-03, Benzaldehyde, 3-methyl-, 2-(2,6-di-4-morpholinyl-4-pyrimidinyl) hydrazone] | 28 | 0.5 µM | 55% | 14 µM | –
2 | CC(C(O)c1ccccc1)N(C)CCOC(c1ccccc1)c1ccccc1 (stereo not drawn) [difeterol] | – | – | – | – | ≤ 5 µM
3 | CCOC(=O)c1c(CSc2ccccc2)n(C)c2cc(Br)c(O)c(CN(C)C)c12 [umifenovir] | – | – | – | – | ≤ 5 µM
